Tested on: tester strains
Assay: In vitro Ames bacterial reverse mutation assay
Assay type: cell-based
Details: presence or absence of microsomal (S9) enzymes
Source text: Therefore, the compound of Formula I was judged to be not mutagenic.

`CS(=O)(=O)c1cccc(C[C@H](NC(=O)c2c(Cl)cc3c(c2Cl)CCN(C(=O)c2ccc4ccoc4c2)C3)C(=O)O)c1` [compound of Formula I] was tested, and the “mutagenicity (revertants per plate)” value was “not mutagenic”.
